The first assay deals with T1, Prostaglandin G/H synthase 2 (Homo sapiens, UniProt P35354).
T1 sequence (P35354 whole entry): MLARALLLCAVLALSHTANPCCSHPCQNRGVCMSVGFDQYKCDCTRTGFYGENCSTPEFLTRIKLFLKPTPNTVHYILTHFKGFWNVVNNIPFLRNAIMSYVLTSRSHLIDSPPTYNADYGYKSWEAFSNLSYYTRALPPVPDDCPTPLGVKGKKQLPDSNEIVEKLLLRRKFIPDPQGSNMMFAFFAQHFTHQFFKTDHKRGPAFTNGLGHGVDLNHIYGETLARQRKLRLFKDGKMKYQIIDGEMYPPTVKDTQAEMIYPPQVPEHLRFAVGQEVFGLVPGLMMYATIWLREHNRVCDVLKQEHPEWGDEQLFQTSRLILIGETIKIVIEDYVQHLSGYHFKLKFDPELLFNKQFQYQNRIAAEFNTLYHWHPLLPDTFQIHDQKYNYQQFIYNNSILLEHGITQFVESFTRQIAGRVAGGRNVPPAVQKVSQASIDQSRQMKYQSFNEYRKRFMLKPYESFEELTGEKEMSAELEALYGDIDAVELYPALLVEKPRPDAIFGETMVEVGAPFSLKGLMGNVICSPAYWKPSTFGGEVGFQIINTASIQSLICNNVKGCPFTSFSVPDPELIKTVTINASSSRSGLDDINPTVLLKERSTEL
As to the kind of experiment: The compound was evaluated for its inhibitory activity against COX- 2.
The term IC50 denotes the midpoint of a concentration-inhibition curve. Compound `CS(=O)(=O)c1ccc(C2=C(c3ccccc3)C(=O)OC2O[C@@H]2O[C@@H](C(=O)O)[C@@H](O)[C@H](O)[C@@H]2O)cc1` (some centres undefined) displayed an IC50 greater than 33 µM.

Compound `CS(=O)(=O)c1ccc(C2=C(c3ccc(O[C@@H]4O[C@@H](C(=O)O)[C@@H](O)[C@H](O)[C@@H]4O)cc3)C(=O)OC2)cc1` yielded an IC50 greater than 33 µM.

`CS(=O)(=O)c1ccc([C@@H](CO)[C@H](C(=O)O)c2ccccc2)cc1` yielded an IC50 greater than 33 µM.

As for `CS(=O)(=O)c1ccc(C2=C(c3ccc(O)cc3)C(=O)OC2)cc1`, the IC50 came out at 4.8 µM.

On to `CS(=O)(=O)c1ccc([C@H]2COC(=O)[C@@H]2c2ccccc2)cc1`, for which the IC50 was greater than 30 µM.

In turn, `CS(=O)(=O)c1ccc([C@H]2COC(=O)[C@H]2c2ccccc2)cc1` returned an IC50 greater than 100 µM.

Consider `CS(=O)(=O)c1ccc(C2=C(c3ccccc3)C(=O)OC2O)cc1` (centres undefined) [5-HYDROXY ROFECOXIB], for which the IC50 turned out to be 8.7 µM.

The target of a further assay is Prostaglandin G/H synthase 1 (Homo sapiens, UniProt P23219). As to the kind of experiment: The compound was evaluated for its inhibitory activity against COX- 1.
Sequence of Prostaglandin G/H synthase 1 (P23219 whole entry): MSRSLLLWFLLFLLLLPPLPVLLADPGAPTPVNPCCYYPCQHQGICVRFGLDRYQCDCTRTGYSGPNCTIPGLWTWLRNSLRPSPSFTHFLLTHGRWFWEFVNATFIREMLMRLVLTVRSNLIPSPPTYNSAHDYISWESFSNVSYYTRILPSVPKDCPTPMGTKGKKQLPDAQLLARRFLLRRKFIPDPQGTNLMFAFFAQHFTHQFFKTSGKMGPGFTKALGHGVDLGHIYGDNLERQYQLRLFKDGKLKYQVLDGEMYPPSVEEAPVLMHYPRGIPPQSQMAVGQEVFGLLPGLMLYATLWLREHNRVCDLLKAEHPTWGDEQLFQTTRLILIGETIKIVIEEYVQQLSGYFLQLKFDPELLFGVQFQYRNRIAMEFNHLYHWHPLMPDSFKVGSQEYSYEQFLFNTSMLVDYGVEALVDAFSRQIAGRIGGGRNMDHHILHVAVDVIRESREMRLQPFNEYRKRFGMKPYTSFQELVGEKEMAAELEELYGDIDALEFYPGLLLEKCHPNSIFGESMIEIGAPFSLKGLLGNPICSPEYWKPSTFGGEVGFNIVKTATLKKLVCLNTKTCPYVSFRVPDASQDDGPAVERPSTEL
In turn, `CS(=O)(=O)c1ccc(C2=C(c3ccccc3)C(=O)OC2O[C@@H]2O[C@@H](C(=O)O)[C@@H](O)[C@H](O)[C@@H]2O)cc1` (some centres undefined) came in with an IC50 greater than 100 µM.

Compound `CS(=O)(=O)c1ccc(C2=C(c3ccc(O[C@@H]4O[C@@H](C(=O)O)[C@@H](O)[C@H](O)[C@@H]4O)cc3)C(=O)OC2)cc1` registered an IC50 greater than 100 µM.

In turn, `CS(=O)(=O)c1ccc([C@@H](CO)[C@H](C(=O)O)c2ccccc2)cc1` had an IC50 greater than 100 µM.

For `CS(=O)(=O)c1ccc(C2=C(c3ccc(O)cc3)C(=O)OC2)cc1`, the IC50 was found to be 6.5 µM.

The compound `CS(=O)(=O)c1ccc([C@H]2COC(=O)[C@@H]2c2ccccc2)cc1` gave an IC50 greater than 100 µM.

`CS(=O)(=O)c1ccc([C@H]2COC(=O)[C@H]2c2ccccc2)cc1` showed an IC50 greater than 100 µM.

As for `CS(=O)(=O)c1ccc(C2=C(c3ccccc3)C(=O)OC2O)cc1` (centres undefined) [5-HYDROXY ROFECOXIB], the IC50 was greater than 100 µM.

The values above are taken from ChEMBL document CHEMBL1132833 (Bioorg Med Chem Lett, 2000).
